Common to all, as to format: cell-based
Holding throughout (details): solo product

The subject of one experiment is Septoria tritici. The experiment can be described thus: Microtest against leaf blotch on wheat caused by Septoria tritici (Septtr).
Another experiment concerns Phytophthora infestans. The experiment can be described thus: microbe, parasite or virus in culture.
Another experiment concerns Botrytis cinerea. As to the kind of experiment: Microtiterplate test against the grey mold Botrytis cinerea (Botrci).
Another experiment deals with Pyricularia oryzae. As to the kind of experiment: microbe, parasite or virus in culture.
For another experiment, the system named is Leptosphaeria nodorum. As to the kind of experiment: Microtest against wheat leaf spots caused by Leptosphaeria nodorum (Leptno).
The test system of the next experiment is Alternaria solani. The experiment can be described thus: Microtest against early blight caused by Alternaria solani (Alteso).

`C[N+]1(C)CCCCC1.[Cl-]` [Mepiquat-cl]: the Observed efficacy in the experiment on Septoria tritici (63 ppm) is recorded as 16; in the experiment with Phytophthora infestans (4 ppm) it was 5; with Botrytis cinerea (16 ppm) it was 11; in the experiment with Pyricularia oryzae (1 ppm), 2; in the experiment with Pyricularia oryzae (4 ppm) it was 1; in the experiment on Pyricularia oryzae (16 ppm), 4. For the same molecule, the Observed efficacy with Leptosphaeria nodorum (63 ppm) came to 28; in the experiment on Alternaria solani (16 ppm), 10; in the experiment with Alternaria solani (63 ppm), 16.

For the molecule `OC(Cc1ccccc1Cl)(Cn1nc[nH]c1=S)C1(Cl)CC1` (stereo not shown) [Prothioconazol], the Observed efficacy with Septoria tritici (0.016 ppm) stood at 17; in the experiment on Phytophthora infestans (1 ppm), 4; in the experiment with Phytophthora infestans (4 ppm), 12; with Phytophthora infestans (16 ppm), 35; in the experiment on Botrytis cinerea (1 ppm), 36; with Botrytis cinerea (4 ppm) it was 72. In addition, the Observed efficacy came to 13 in the experiment with Pyricularia oryzae (1 ppm), 23 with Pyricularia oryzae (4 ppm), 43 with Leptosphaeria nodorum (1 ppm) and 66 with Alternaria solani (1 ppm).

Source of the values: patent publication US20150313225A1.
